Several values for one entry are separate records, joined by “and”; a condition that tells them apart may be missing. Equal values may be shown once. Toxic doses and inconclusive results are not listed. Rule as the data show it: active = T/C of 150% or more; inactive = T/C below 125%.
Tested on: L1210 leukemia ip in BDF1 mice, survival T/C
Assay: NCI In Vivo Anticancer Drug Screen. Data for tumor model L1210 Leukemia (intraperitoneal) in B6D2F1 (BDF1) mice
Conditions: endpoint: mean survival time, higher = longer survival
Procedure, shortened: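 Mice bearing the transplanted tumor received compound or vehicle. Survival of the treated group was divided by that of the vehicle-treated control group to give the ratio.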

[1] = dose: 100.0 mg/kg/injection, schedule: Q01DX009 (ip), vehicle: saline
[2] = dose: 200.0 mg/kg/injection, schedule: Q01DX009 (ip), vehicle: saline
[3] = dose: 400.0 mg/kg/injection, schedule: Q01DX009 (ip), vehicle: saline
[4] = dose: 100.0 mg/kg/injection, schedule: Q01DX009 (ip), vehicle: Klucel (hydroxypropylcellulose) (HPC)
[5] = dose: 100.0 mg/kg/injection, schedule: Q04DX003 (ip), vehicle: Klucel (hydroxypropylcellulose) (HPC)
[6] = dose: 200.0 mg/kg/injection, schedule: Q01DX009 (ip), vehicle: Klucel (hydroxypropylcellulose) (HPC)
[7] = dose: 200.0 mg/kg/injection, schedule: Q04DX003 (ip), vehicle: Klucel (hydroxypropylcellulose) (HPC)
[8] = dose: 400.0 mg/kg/injection, schedule: Q04DX003 (ip), vehicle: Klucel (hydroxypropylcellulose) (HPC)
[9] = dose: 100.0 mg/kg/injection, schedule: Q01DX001 (ip), vehicle: saline
[10] = dose: 200.0 mg/kg/injection, schedule: Q01DX001 (ip), vehicle: saline
[11] = dose: 400.0 mg/kg/injection, schedule: Q01DX001 (ip), vehicle: saline

Measured: T/C

COc1cc([N+](=O)[O-])ccc1C
inactive: dose: 100.0 mg/kg/injection, schedule: Q01DX009 (ip), vehicle: other 111 % of control | dose: 100.0 mg/kg/injection, schedule: Q04DX003 (ip), vehicle: other 97 % of control | dose: 200.0 mg/kg/injection, schedule: Q01DX009 (ip), vehicle: other 98 % of control | dose: 200.0 mg/kg/injection, schedule: Q04DX003 (ip), vehicle: other 90 % of control | dose: 400.0 mg/kg/injection, schedule: Q01DX009 (ip), vehicle: other 104 % of control | dose: 400.0 mg/kg/injection, schedule: Q04DX003 (ip), vehicle: other 88 % of control

CC(=O)OCc1ccc(-n2c(C(F)(F)F)nc3nc(Cl)c(Cl)nc32)o1
inactive: dose: 50.0 mg/kg/injection, schedule: Q01DX009 (ip), vehicle: saline 97 % of control | [1] 102 % of control | dose: 100.0 mg/kg/injection, schedule: Q04DX003 (ip), vehicle: saline 105 % of control | [2] 96 % of control | dose: 200.0 mg/kg/injection, schedule: Q04DX003 (ip), vehicle: saline 100 % of control | [3] 97 % of control | dose: 400.0 mg/kg/injection, schedule: Q04DX003 (ip), vehicle: saline 88 % of control

CN=C(NC)c1ccc(NC(=O)c2cccc(C(=O)Nc3ccc(C(=NC)NC)cc3)c2)cc1
inactive: dose: 15.0 mg/kg/injection, schedule: Q01DX Z (ip), vehicle: saline 110 % of control | dose: 30.0 mg/kg/injection, schedule: Q01DX Z (ip), vehicle: saline 119 % of control | dose: 60.0 mg/kg/injection, schedule: Q01DX Z (ip), vehicle: saline 86 % of control

CC(=O)Nc1ccc(/C=C2N=C(/C=C/c3ccccc3)OC\2=O)cc1
inactive: dose: 100.0 mg/kg/injection, schedule: Q04DX002 (ip), vehicle: Klucel (hydroxypropylcellulose) (HPC) 94 % of control | dose: 200.0 mg/kg/injection, schedule: Q04DX002 (ip), vehicle: Klucel (hydroxypropylcellulose) (HPC) 105 % of control | dose: 400.0 mg/kg/injection, schedule: Q04DX002 (ip), vehicle: Klucel (hydroxypropylcellulose) (HPC) 90 % of control

CCOC(=O)C1(O)c2ccccc2NC(=S)N1CC(Br)CBr (stereo not given)
inactive: [1] 100 % of control | dose: 100.0 mg/kg/injection, schedule: Q04DX002 (ip), vehicle: saline 90 % of control | [2] 93 % of control | dose: 200.0 mg/kg/injection, schedule: Q04DX002 (ip), vehicle: saline 97 % of control | [3] 102 % of control | dose: 400.0 mg/kg/injection, schedule: Q04DX002 (ip), vehicle: saline 103 % of control

CCOC(=O)C1CCCCC1=O (stereo not given)
inactive: [4] 88 % of control | [5] 93 % of control | [6] 97 % of control | [7] 98 % of control | dose: 400.0 mg/kg/injection, schedule: Q01DX009 (ip), vehicle: Klucel (hydroxypropylcellulose) (HPC) 111 % of control | [8] 96 % of control

CCOC(=O)Cn1c(=O)c2ccccc2c2cc(Br)ccc21
inactive: dose: 100.0 mg/kg/injection, schedule: Q01DX001 (ip), vehicle: Klucel (hydroxypropylcellulose) (HPC) 89 % of control | dose: 200.0 mg/kg/injection, schedule: Q01DX001 (ip), vehicle: Klucel (hydroxypropylcellulose) (HPC) 100 % of control | dose: 400.0 mg/kg/injection, schedule: Q01DX001 (ip), vehicle: Klucel (hydroxypropylcellulose) (HPC) 92 % of control

O=C(O)/C(=C\c1ccc([N+](=O)[O-])cc1)c1cccc2ccccc12
inactive: dose: 50.0 mg/kg/injection, schedule: Q04DX003 (ip), vehicle: Klucel (hydroxypropylcellulose) (HPC) 94 % of control | [4] 93 % of control | [5] 89 % of control | [6] 98 % of control | [7] 91 % of control

CN(C)c1ccc(C2OC3(CCCCC3)C[N+]23CCCC3)cc1 (stereo not given)
inactive: dose: 100.0 mg/kg/injection, schedule: Q04DX003 (ip), vehicle: acetone 102 % of control

O=c1oc(Cl)c(Cl)c(Cl)c1Cl
inactive: dose: 2.2 mg/kg/injection, schedule: Q01DX Z (ip), vehicle: methylcellulose (MC) 93 % of control

CN(C)C(=S)Oc1ccccc1C1(C)OCCO1
inactive: dose: 100.0 mg/kg/injection, schedule: Q01DX001 (ip), vehicle: saline with Tween-80 97 % of control | dose: 200.0 mg/kg/injection, schedule: Q01DX001 (ip), vehicle: saline with Tween-80 98 % of control | dose: 400.0 mg/kg/injection, schedule: Q01DX001 (ip), vehicle: saline with Tween-80 96 % of control

Cc1cc2oc(=O)cc(C)c2c(=O)o1
inactive: dose: 100.0 mg/kg/injection, schedule: Q01DX001 (ip), vehicle: carboxymethylcellulose (CMC) 97 % of control | dose: 200.0 mg/kg/injection, schedule: Q01DX001 (ip), vehicle: carboxymethylcellulose (CMC) 92 % of control

CCCCCCCC/C=C/CCCCCCCC(=O)NCC[N+]1(C)CCCCC1
inactive: dose: 75.0 mg/kg/injection, schedule: Q01DX001 (ip), vehicle: saline 95 % of control

CC(=O)c1c(O)c(C)c(O)c2c1OC1=CC(=O)C(C(C)=O)C(=O)C12C (stereo not given)
inactive: dose: 5.0 mg/kg/injection, schedule: Q01DX009 (ip), vehicle: gum acacia 103 % of control | dose: 10.0 mg/kg/injection, schedule: Q01DX009 (ip), vehicle: gum acacia 101 % of control | dose: 20.0 mg/kg/injection, schedule: Q01DX009 (ip), vehicle: gum acacia 103 % of control | dose: 40.0 mg/kg/injection, schedule: Q01DX009 (ip), vehicle: gum acacia 94 % of control | dose: 80.0 mg/kg/injection, schedule: Q01DX009 (ip), vehicle: gum acacia 86 % of control

Nc1cc(O)cc(O)c1
inactive: dose: 100.0 mg/kg/injection, schedule: Q01DX009 (ip), vehicle: saline with Tween-80 95 % of control | dose: 100.0 mg/kg/injection, schedule: Q04DX003 (ip), vehicle: saline with Tween-80 91 % of control | dose: 200.0 mg/kg/injection, schedule: Q01DX009 (ip), vehicle: saline with Tween-80 95 % of control | dose: 200.0 mg/kg/injection, schedule: Q04DX003 (ip), vehicle: saline with Tween-80 98 % of control | dose: 400.0 mg/kg/injection, schedule: Q01DX009 (ip), vehicle: saline with Tween-80 102 % of control | dose: 400.0 mg/kg/injection, schedule: Q04DX003 (ip), vehicle: saline with Tween-80 89 % of control

CCCCCCCC/C=C\CCCCCCCCNP(=O)(OC)OC
inactive: dose: 25.0 mg/kg/injection, schedule: Q04DX002 (ip), vehicle: saline with Tween-80 96 % of control | dose: 50.0 mg/kg/injection, schedule: Q04DX002 (ip), vehicle: saline with Tween-80 92 % of control | dose: 100.0 mg/kg/injection, schedule: Q04DX002 (ip), vehicle: saline with Tween-80 101 % of control and 92 % of control

CCCCCCCCCCCCCCCC(=O)N(CC#N)CC#N
inactive: [5] 91 % of control | [7] 92 % of control | [8] 89 % of control

Cc1ccc(S(=O)(=O)OCC2OC(C)(C)OC3C(COS(=O)(=O)c4ccc(C)cc4)OC(C)(C)OC23)cc1 (stereo not given)
inactive: [9] 99 % of control | [10] 89 % of control | [11] 99 % of control

CCOSc1ccc([N+](=O)[O-])cc1[N+](=O)[O-]
inactive: dose: 50.0 mg/kg/injection, schedule: Q01DX001 (ip), vehicle: saline 90 % of control | [9] 93 % of control | [10] 90 % of control | [11] 95 % of control

CS(=O)(=O)OCC1(Br)CC1(c1ccccc1)c1ccccc1 (stereo not given)
inactive: dose: 100.0 mg/kg/injection, schedule: Q01DX001 (ip), vehicle: other 95 % of control | dose: 200.0 mg/kg/injection, schedule: Q01DX001 (ip), vehicle: other 95 % of control | dose: 400.0 mg/kg/injection, schedule: Q01DX001 (ip), vehicle: other 90 % of control

[O-][n+]1onc(-c2ccccc2)c1-c1ccccc1
inactive: [5] 105 % of control | [7] 108 % of control | [8] 108 % of control

N#Cc1nc2c(n(O)c1=N)CCC/C2=C\c1ccccc1
inactive: dose: 50.0 mg/kg/injection, schedule: Q01DX009 (ip), vehicle: Klucel (hydroxypropylcellulose) (HPC) 103 % of control | [4] 103 % of control | [6] 93 % of control

CCOC(=O)N/N=C/c1cccs1
inactive: [9] 98 % of control | [10] 96 % of control | [11] 98 % of control

N#CCC[P+](c1ccccc1)(c1ccccc1)c1ccccc1
inactive: dose: 5.0 mg/kg/injection, schedule: Q01DX001 (ip), vehicle: saline 102 % of control | dose: 10.0 mg/kg/injection, schedule: Q01DX001 (ip), vehicle: saline 102 % of control | dose: 20.0 mg/kg/injection, schedule: Q01DX001 (ip), vehicle: saline 102 % of control | dose: 40.0 mg/kg/injection, schedule: Q01DX001 (ip), vehicle: saline 102 % of control | dose: 80.0 mg/kg/injection, schedule: Q01DX001 (ip), vehicle: saline 100 % of control | [9] 109 % of control | [10] 108 % of control

From PubChem BioAssay AID248 (DTP/NCI, 2004)
